target: T1, human PAH with the R408W mutation (Homo sapiens, UniProt P00439, R408W); assay: Cell Based Phenylalanine Flux Assay; conditions: A375 cells expressing human R408W PAH; 24 hrs compound incubation; 13C-Tyrosine by LC-MS; average where tested multiple times; read-out: AC50
T1 construct: expressed in transfected cells
T1 sequence (P00439 1-452 R408W): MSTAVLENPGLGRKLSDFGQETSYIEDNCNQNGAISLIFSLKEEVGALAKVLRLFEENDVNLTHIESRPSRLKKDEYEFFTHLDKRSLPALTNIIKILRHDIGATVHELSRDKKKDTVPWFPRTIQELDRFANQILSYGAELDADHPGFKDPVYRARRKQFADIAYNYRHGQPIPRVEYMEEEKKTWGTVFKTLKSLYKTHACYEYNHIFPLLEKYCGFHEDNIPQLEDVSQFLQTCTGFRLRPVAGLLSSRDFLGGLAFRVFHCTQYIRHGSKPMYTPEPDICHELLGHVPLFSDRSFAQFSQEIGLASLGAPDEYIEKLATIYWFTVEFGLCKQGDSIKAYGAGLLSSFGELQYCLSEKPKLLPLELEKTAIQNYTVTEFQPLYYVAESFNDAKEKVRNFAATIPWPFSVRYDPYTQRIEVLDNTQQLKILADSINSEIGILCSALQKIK

AC50 | SMILES
500 to 1000 nM | Cn1cc(-c2ncc(C(=O)N3CCc4[nH]cnc4[C@H]3c3nc4c(F)cccc4s3)o2)cn1 [Example 1346, (S)-(4-(4-fluorobenzo[d]thiazol-2-yl)-6,7-dihydro-1H-imidazo[4,5-c]pyridin-5(4H)-yl)(2-(1-methyl-1H-pyrazol-4-yl)oxazol-5-yl)methanone]
< 500 nM | O=C(c1cnc(C(F)(F)F)o1)N1CCc2[nH]cnc2[C@H]1c1nc2ccccc2s1 [Example 1347]
1000 to 5000 nM | O=C(c1cnc(C(F)(F)F)o1)N1CCc2[nH]cnc2[C@@H]1c1nc2ccccc2s1 [Example 1348, (R)-(4-(benzo[d]thiazol-2-yl)-6,7-dihydro-1H-imidazo[4,5-c]pyridin-5(4H)-yl)(2-(trifluoromethyl)oxazol-5-yl)methanone]
1000 to 5000 nM | O=C(c1cnc(-c2ccc(C(F)(F)F)cn2)s1)N1CCc2[nH]cnc2[C@H]1c1nc2ccccc2s1 [Example 1349]
1000 to 5000 nM | O=C(c1cnc(-c2ccc(C(F)(F)F)cn2)s1)N1CCc2[nH]cnc2[C@@H]1c1nc2ccccc2s1 [Example 1350, (R)-(4-(benzo[d]thiazol-2-yl)-6,7-dihydro-1H-imidazo[4,5-c]pyridin-5(4H)-yl)(2-(5-(trifluoromethyl)pyridin-2-yl)thiazol-5-yl)methanone]
500 to 1000 nM | CC1(C)CC=C(c2ncc(C(=O)N3CCc4[nH]cnc4[C@H]3c3nc4ccccc4s3)s2)CC1 [Example 1351]
1000 to 5000 nM | CC1(C)CC=C(c2ncc(C(=O)N3CCc4[nH]cnc4[C@@H]3c3nc4ccccc4s3)s2)CC1 [Example 1352, (R)-(4-(benzo[d]thiazol-2-yl)-6,7-dihydro-1H-imidazo[4,5-c]pyridin-5(4H)-yl)(2-(4,4-dimethylcyclohex-1-en-1-yl)thiazol-5-yl)methanone]
< 500 nM | CC1(C)CCC(c2ncc(C(=O)N3CCc4[nH]cnc4[C@H]3c3nc4ccccc4s3)s2)CC1 [Example 1353]
1000 to 5000 nM | CC1(C)CCC(c2ncc(C(=O)N3CCc4[nH]cnc4[C@@H]3c3nc4ccccc4s3)s2)CC1 [Example 1354, (R)-(4-(benzo[d]thiazol-2-yl)-6,7-dihydro-1H-imidazo[4,5-c]pyridin-5(4H)-yl)(2-(4,4-dimethylcyclohexyl)thiazol-5-yl)methanone]
1000 to 5000 nM | O=C(c1cnc(-c2ccc(C(F)(F)F)nc2)s1)N1CCc2[nH]cnc2[C@@H]1c1nc2ccccc2s1 [Example 1355, (R)-(4-(benzo[d]thiazol-2-yl)-6,7-dihydro-1H-imidazo[4,5-c]pyridin-5(4H)-yl)(2-(6-(trifluoromethyl)pyridin-3-yl)thiazol-5-yl)methanone]
500 to 1000 nM | O=C(c1cnc(-c2ccc(C(F)(F)F)nc2)s1)N1CCc2[nH]cnc2[C@H]1c1nc2ccccc2s1 [Example 1356]
< 500 nM | O=C(c1cnc(-c2cc(C(F)(F)F)ccn2)s1)N1CCc2[nH]cnc2[C@H]1c1nc2ccccc2s1 [Example 1357]
1000 to 5000 nM | O=C(c1cnc(-c2cc(C(F)(F)F)ccn2)s1)N1CCc2[nH]cnc2[C@@H]1c1nc2ccccc2s1 [Example 1358, (R)-(4-(benzo[d]thiazol-2-yl)-6,7-dihydro-1H-imidazo[4,5-c]pyridin-5(4H)-yl)(2-(4-(trifluoromethyl)pyridin-2-yl)thiazol-5-yl)methanone]
< 500 nM | Cc1c(-c2ncc(C(=O)N3CCc4[nH]cnc4[C@H]3c3nc4ccccc4s3)s2)cnn1C [Example 1359]
1000 to 5000 nM | Cc1c(-c2ncc(C(=O)N3CCc4[nH]cnc4[C@@H]3c3nc4ccccc4s3)s2)cnn1C [Example 1360, (R)-(4-(benzo[d]thiazol-2-yl)-6,7-dihydro-1H-imidazo[4,5-c]pyridin-5(4H)-yl)(2-(1,5-dimethyl-1H-pyrazol-4-yl)thiazol-5-yl)methanone]
< 500 nM | O=C(c1cnc(-c2cnn(CC(F)(F)F)c2)s1)N1CCc2[nH]cnc2[C@H]1c1nc2ccccc2s1 [Example 1361]
1000 to 5000 nM | O=C(c1cnc(-c2cnn(CC(F)(F)F)c2)s1)N1CCc2[nH]cnc2[C@@H]1c1nc2ccccc2s1 [Example 1362, (R)-(4-(benzo[d]thiazol-2-yl)-6,7-dihydro-1H-imidazo[4,5-c]pyridin-5(4H)-yl)(2-(1-(2,2,2-trifluoroethyl)-1H-pyrazol-4-yl)thiazol-5-yl)methanone]
< 500 nM | O=C(c1nnc(C2CC2)o1)N1CCc2[nH]cnc2[C@H]1c1nc2ccccc2s1 [Example 1363]
1000 to 5000 nM | O=C(c1nnc(C2CC2)o1)N1CCc2[nH]cnc2[C@@H]1c1nc2ccccc2s1 [Example 1364, (R)-(4-(benzo[d]thiazol-2-yl)-6,7-dihydro-1H-imidazo[4,5-c]pyridin-5(4H)-yl)(5-cyclopropyl-1,3,4-oxadiazol-2-yl)methanone]

AC50 | SMILES
1000 to 5000 nM | O=C(c1nnc(-c2ccc(F)cn2)o1)N1CCc2[nH]cnc2[C@@H]1c1nc2ccccc2s1 [Example 1366, (R)-(4-(benzo[d]thiazol-2-yl)-6,7-dihydro-1H-imidazo[4,5-c]pyridin-5(4H)-yl)(5-(5-fluoropyridin-2-yl)-1,3,4-oxadiazol-2-yl)methanone]
< 500 nM | O=C(c1nnc(-c2c(F)cccc2F)o1)N1CCc2[nH]cnc2[C@H]1c1nc2ccccc2s1 [Example 1367]
< 500 nM | O=C(c1nnc(-c2c(F)cccc2F)o1)N1CCc2[nH]cnc2[C@@H]1c1nc2ccccc2s1 [Example 1368, (R)-(4-(benzo[d]thiazol-2-yl)-6,7-dihydro-1H-imidazo[4,5-c]pyridin-5(4H)-yl)(5-(2,6-difluorophenyl)-1,3,4-oxadiazol-2-yl)methanone]
< 500 nM | O=C(c1nnc(-c2ccc(F)cc2)o1)N1CCc2[nH]cnc2[C@H]1c1nc2ccccc2s1 [Example 1369]
1000 to 5000 nM | O=C(c1nnc(-c2ccc(F)cc2)o1)N1CCc2[nH]cnc2[C@@H]1c1nc2ccccc2s1 [Example 1370, (R)-(4-(benzo[d]thiazol-2-yl)-6,7-dihydro-1H-imidazo[4,5-c]pyridin-5(4H)-yl)(5-(4-fluorophenyl)-1,3,4-oxadiazol-2-yl)methanone]
< 500 nM | Cc1nc(-c2ccccn2)oc1C(=O)N1CCc2[nH]cnc2[C@H]1c1nc2ccccc2s1 [Example 1371]
> 5000 nM | Cc1nc(-c2ccccn2)oc1C(=O)N1CCc2[nH]cnc2[C@@H]1c1nc2ccccc2s1 [Example 1372, (R)-(4-(benzo[d]thiazol-2-yl)-6,7-dihydro-1H-imidazo[4,5-c]pyridin-5(4H)-yl)(4-methyl-2-(pyridin-2-yl)oxazol-5-yl)methanone]
< 500 nM | O=C(c1cnc(-c2ncccc2F)s1)N1CCc2[nH]cnc2[C@H]1c1nc2ccccc2s1 [Example 1373]
500 to 1000 nM | O=C(c1cnc(-c2ncccc2F)s1)N1CCc2[nH]cnc2[C@@H]1c1nc2ccccc2s1 [Example 1374, (R)-(4-(benzo[d]thiazol-2-yl)-6,7-dihydro-1H-imidazo[4,5-c]pyridin-5(4H)-yl)(2-(3-fluoropyridin-2-yl)thiazol-5-yl)methanone]
1000 to 5000 nM | Cc1nc(-c2cnn(C)c2)oc1C(=O)N1CCc2[nH]cnc2[C@@H]1c1nc2ccccc2s1 [Example 1375, (R)-(4-(benzo[d]thiazol-2-yl)-6,7-dihydro-1H-imidazo[4,5-c]pyridin-5(4H)-yl)(4-methyl-2-(1-methyl-1H-pyrazol-4-yl)oxazol-5-yl)methanone]
< 500 nM | Cc1nc(-c2cnn(C)c2)oc1C(=O)N1CCc2[nH]cnc2[C@H]1c1nc2ccccc2s1 [Example 1376]
> 5000 nM | Cc1nc(-c2cnn(C)c2)oc1C(=O)N1CCc2[nH]cnc2[C@@H]1c1nc2c(F)cccc2s1 [Example 1377, (R)-(4-(4-fluorobenzo[d]thiazol-2-yl)-6,7-dihydro-1H-imidazo[4,5-c]pyridin-5(4H)-yl)(4-methyl-2-(1-methyl-1H-pyrazol-4-yl)oxazol-5-yl)methanone]
< 500 nM | Cc1nc(-c2cnn(C)c2)oc1C(=O)N1CCc2[nH]cnc2[C@H]1c1nc2c(F)cccc2s1 [Example 1378, (S)-(4-(4-fluorobenzo[d]thiazol-2-yl)-6,7-dihydro-1H-imidazo[4,5-c]pyridin-5(4H)-yl)(4-methyl-2-(1-methyl-1H-pyrazol-4-yl)oxazol-5-yl)methanone]
< 500 nM | Cc1nn(C)cc1-c1ncc(C(=O)N2CCc3[nH]cnc3[C@H]2c2nc3ccccc3s2)s1 [Example 1379]
1000 to 5000 nM | Cc1nn(C)cc1-c1ncc(C(=O)N2CCc3[nH]cnc3[C@@H]2c2nc3ccccc3s2)s1 [Example 1380, (R)-(4-(benzo[d]thiazol-2-yl)-6,7-dihydro-1H-imidazo[4,5-c]pyridin-5(4H)-yl)(2-(1,3-dimethyl-1H-pyrazol-4-yl)thiazol-5-yl)methanone]
< 500 nM | Cc1nn(C)cc1-c1ncc(C(=O)N2CCc3[nH]cnc3[C@H]2c2nc3ccccc3s2)o1 [Example 1381]
1000 to 5000 nM | Cc1nn(C)cc1-c1ncc(C(=O)N2CCc3[nH]cnc3[C@@H]2c2nc3ccccc3s2)o1 [Example 1382, (R)-(4-(benzo[d]thiazol-2-yl)-6,7-dihydro-1H-imidazo[4,5-c]pyridin-5(4H)-yl)(2-(1,3-dimethyl-1H-pyrazol-4-yl)oxazol-5-yl)methanone]
< 500 nM | Cc1c(-c2ncc(C(=O)N3CCc4[nH]cnc4[C@H]3c3nc4ccccc4s3)o2)cnn1C [Example 1383]
1000 to 5000 nM | Cc1c(-c2ncc(C(=O)N3CCc4[nH]cnc4[C@@H]3c3nc4ccccc4s3)o2)cnn1C [Example 1384, (R)-(4-(benzo[d]thiazol-2-yl)-6,7-dihydro-1H-imidazo[4,5-c]pyridin-5(4H)-yl)(2-(1,5-dimethyl-1H-pyrazol-4-yl)oxazol-5-yl)methanone]

From patent publication US20250171438A1 (Agios Pharmaceuticals, Inc., priority 2022, published 2025)
